Test results taken from US11497212B2, “Substituted thiophenyl uracils, salts thereof and the use thereof as herbicidal agents” (Syngenta Crop Protection AG, priority 2017, dated 2022).

Key:
Assay type in all cases: in vivo
Amaranthus retroflexus [1] = assay: Herbicidal action pre-emergence (greenhouse pot trial); settings: scored after about 3 weeks
Outline: (§1)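 Efficacy scored visually as percent of untreated control (0% = like control, 100% = dead) roughly 3 weeks after treatment. Compounds, as WP or EC plus 0.5% additive in 600 L/ha water, were applied at up to 320 g/ha to soil surface covering freshly sown seeds.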

Matricaria inodora [2] = assay: as above; settings: scored after about 3 weeks
Outline: as §1

Abutilon theophrasti [3] = assay: as above; settings: scored after about 3 weeks
Outline: as §1

Triticum aestivum = assay: Crop compatibility post-emergence (greenhouse pot trial); settings: application rate 20 g/ha
Outline: (§2)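 Greenhouse pot trial: sandy loam, sown seeds, treatment at one-leaf stage 2–3 wk after sowing. Spray: aqueous WP/EC preparation, 0.5% additive, 600 L/ha. Readout: visual % effect after ~3 wk relative to untreated plants.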

Zea mays [4] = assay: as above
Outline: as §2

Oryza sativa [5] = assay: as above; settings: application rate 20 g/ha
Outline: as §2

Pharbitis purpurea [6] = assay: Herbicidal action post-emergence (greenhouse pot trial)
Outline: (§3)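 Visual efficacy score after ~3 wk in greenhouse vs untreated control; 100% = plants dead, 0% = like control. Spray: aqueous suspension/emulsion of WP or EC, 0.5% additive, 600 L/ha water, ≤80 g/ha. Plants in sandy loam pots, treated at one-leaf stage, 2–3 wk post-sowing.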

Veronica persica = assay: as above
Outline: as §3

Digitaria sanguinalis = assay: as above; settings: application rate 20 g/ha
Outline: as §3

Stellaria media [7] = assay: as above; settings: scored visually after about 3 weeks vs untreated controls
Outline: as §3

Amaranthus retroflexus [8] = assay: as above; settings: scored visually after about 3 weeks vs untreated controls
Outline: as §3

Setaria viridis [9] = assay: as above; settings: scored visually after about 3 weeks vs untreated controls
Outline: as §3

Matricaria inodora [10] = assay: as above; settings: scored visually after about 3 weeks vs untreated controls
Outline: as §3

Abutilon theophrasti [11] = assay: as above; settings: scored visually after about 3 weeks vs untreated controls
Outline: as §3

Viola tricolor [12] = assay: as above
Outline: as §3

Glycine max = assay: Crop compatibility pre-emergence (greenhouse pot trial); settings: application rate 80 g/ha, effect vs untreated controls
Outline: (§4)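 Seeds sown in pots and covered with soil; compounds formulated as WP or EC applied pre-emergence to the soil surface as aqueous suspension/emulsion with 0.5% additive at 600 L/ha water. Plants kept in greenhouse; crop damage scored visually after about 3 weeks as % versus untreated controls (0% = like control, 100% = dead).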

Zea mays [13] = assay: as above; settings: effect vs untreated controls
Outline: as §4

Oryza sativa [14] = assay: as above; settings: application rate 80 g/ha, effect vs untreated controls
Outline: as §4

Pharbitis purpurea [15] = assay: Herbicidal action pre-emergence (greenhouse pot trial); settings: application rate 320 g/ha
Outline: as §1

Hordeum murinum [16] = assay: as above; settings: application rate 320 g/ha
Outline: as §1

Avena fatua [17] = assay: as above; settings: application rate 320 g/ha
Outline: as §1

Stellaria media [18] = assay: as above; settings: application rate 320 g/ha, scored after about 3 weeks
Outline: as §1

Cyperus esculentus = assay: as above; settings: application rate 320 g/ha
Outline: as §1

Setaria viridis [19] = assay: as above; settings: application rate 320 g/ha, scored after about 3 weeks
Outline: as §1

Echinochloa crus-galli [20] = assay: as above; settings: application rate 320 g/ha, scored after about 3 weeks
Outline: as §1

Viola tricolor [21] = assay: as above; settings: application rate 320 g/ha, scored after about 3 weeks
Outline: as §1

Alopecurus myosuroides [22] = assay: as above; settings: application rate 320 g/ha, scored after about 3 weeks
Outline: as §1

Lolium rigidum [23] = assay: as above; settings: application rate 320 g/ha
Outline: as §1

Polygonum convolvulus = assay: Herbicidal action post-emergence (greenhouse pot trial); settings: application rate 80 g/ha, scored visually after about 3 weeks vs untreated controls
Outline: as §3

Hordeum murinum [24] = assay: as above; settings: application rate 80 g/ha, scored visually after about 3 weeks vs untreated controls
Outline: as §3

Avena fatua [25] = assay: as above; settings: application rate 80 g/ha, scored visually after about 3 weeks vs untreated controls
Outline: as §3

Echinochloa crus-galli [26] = assay: as above; settings: application rate 80 g/ha, scored visually after about 3 weeks vs untreated controls
Outline: as §3

Alopecurus myosuroides [27] = assay: as above; settings: application rate 80 g/ha, scored visually after about 3 weeks vs untreated controls
Outline: as §3

Lolium rigidum [28] = assay: as above; settings: application rate 80 g/ha, scored visually after about 3 weeks vs untreated controls
Outline: as §3

CC(Sc1cc(-n2c(=O)cc(C(F)(F)F)n(C)c2=O)c(F)cc1Cl)C(=O)OC1CCCOC1 (stereo not shown) [I.1-126]
Amaranthus retroflexus (Efficacy in %) (Amaranthus retroflexus [1]; application rate 80 g/ha): 100% | Matricaria inodora (Efficacy in %) (Matricaria inodora [2]; application rate 80 g/ha): 100% | Abutilon theophrasti (Efficacy in %) (Abutilon theophrasti [3]; application rate 80 g/ha): 100% | Triticum aestivum (Efficacy in %) (Triticum aestivum): 20% | Zea mays (Efficacy in %) (Zea mays [4]; application rate 20 g/ha): 20% | Oryza sativa (Efficacy in %) (Oryza sativa [5]): 0% | Pharbitis purpurea (Efficacy in %) (Pharbitis purpurea [6]; application rate 20 g/ha): 100% | Veronica persica (Efficacy in %) (Veronica persica; application rate 20 g/ha): 100% | Digitaria sanguinalis (Efficacy in %) (Digitaria sanguinalis): 80% | Stellaria media (Efficacy in %) (Stellaria media [7]; application rate 20 g/ha): 100% | Amaranthus retroflexus (Efficacy in %) (Amaranthus retroflexus [8]; application rate 20 g/ha): 100% | Setaria viridis (Efficacy in %) (Setaria viridis [9]; application rate 20 g/ha): 100% | Matricaria inodora (Efficacy in %) (Matricaria inodora [10]; application rate 20 g/ha): 90% | Abutilon theophrasti (Efficacy in %) (Abutilon theophrasti [11]; application rate 20 g/ha): 100% | Viola tricolor (Efficacy in %) (Viola tricolor [12]; application rate 20 g/ha): 100% | Glycine max (Efficacy in %) (Glycine max): 10% | Zea mays (Efficacy in %) (Zea mays [13]; application rate 80 g/ha): 0% | Oryza sativa (Efficacy in %) (Oryza sativa [14]): 20%

CC(Sc1cc(-n2c(=O)cc(C(F)(F)F)n(C)c2=O)c(F)cc1Cl)C(=O)NCC1CCCO1 (stereo not shown) [I.1-221]
Pharbitis purpurea (Efficacy in %) (Pharbitis purpurea [15]): 100% | Hordeum murinum (Efficacy in %) (Hordeum murinum [16]): 100% | Avena fatua (Efficacy in %) (Avena fatua [17]): 100% | Stellaria media (Efficacy in %) (Stellaria media [18]): 100% | Amaranthus retroflexus (Efficacy in %) (Amaranthus retroflexus [1]; application rate 320 g/ha): 100% | Cyperus esculentus (Efficacy in %) (Cyperus esculentus): 100% | Setaria viridis (Efficacy in %) (Setaria viridis [19]): 100% | Matricaria inodora (Efficacy in %) (Matricaria inodora [2]; application rate 320 g/ha): 100% | Echinochloa crus-galli (Efficacy in %) (Echinochloa crus-galli [20]): 100% | Abutilon theophrasti (Efficacy in %) (Abutilon theophrasti [3]; application rate 320 g/ha): 100% | Viola tricolor (Efficacy in %) (Viola tricolor [21]): 100% | Alopecurus myosuroides (Efficacy in %) (Alopecurus myosuroides [22]): 90% | Lolium rigidum (Efficacy in %) (Lolium rigidum [23]): 100% | Triticum aestivum (Efficacy in %) (Triticum aestivum): 20% | Zea mays (Efficacy in %) (Zea mays [4]; application rate 5 g/ha): 10% | Oryza sativa (Efficacy in %) (Oryza sativa [5]): 0% | Polygonum convolvulus (Efficacy in %) (Polygonum convolvulus): 100% | Pharbitis purpurea (Efficacy in %) (Pharbitis purpurea [6]; application rate 80 g/ha): 100% | Hordeum murinum (Efficacy in %) (Hordeum murinum [24]): 80% | Veronica persica (Efficacy in %) (Veronica persica; application rate 80 g/ha): 100% | Avena fatua (Efficacy in %) (Avena fatua [25]): 80% | Stellaria media (Efficacy in %) (Stellaria media [7]; application rate 80 g/ha): 100% | Amaranthus retroflexus (Efficacy in %) (Amaranthus retroflexus [8]; application rate 80 g/ha): 100% | Setaria viridis (Efficacy in %) (Setaria viridis [9]; application rate 80 g/ha): 100% | Matricaria inodora (Efficacy in %) (Matricaria inodora [10]; application rate 80 g/ha): 100% | Echinochloa crus-galli (Efficacy in %) (Echinochloa crus-galli [26]): 100% | Abutilon theophrasti (Efficacy in %) (Abutilon theophrasti [11]; application rate 80 g/ha): 100% | Viola tricolor (Efficacy in %) (Viola tricolor [12]; application rate 80 g/ha): 100% | Alopecurus myosuroides (Efficacy in %) (Alopecurus myosuroides [27]): 90% | Lolium rigidum (Efficacy in %) (Lolium rigidum [28]): 90% | Zea mays (Efficacy in %) (Zea mays [13]; application rate 20 g/ha): 0%
